Source: patent US11612606B2, “8-aminoisoquinoline compounds and uses thereof” (priority 2018, dated 2023)
Structures can show the parent of a compound that is named as a salt. Where two headings read alike, the source gives them in different places.

Biological target: HPK full length, T165E S171E (Homo sapiens (Human), UniProt Q92918, S171E/T165E)
Assay: HPK1-FL HTRF enzymatic assay ("HTRF")
Type: biochemical
Conditions: ATP 1 mM
In short: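 Full-length HPK1 (T165E/S171E) was preincubated 30 min with compound, then reacted 60 min with biotin-SLP-76 and 1 mM ATP. Phospho-SLP-76 was detected by HTRF (Eu-anti-pSLP76 antibody, SA-XL665) after a further 60 min.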

Sequence of HPK full length, T165E S171E (Q92918 whole entry T165E/S171E, looked up): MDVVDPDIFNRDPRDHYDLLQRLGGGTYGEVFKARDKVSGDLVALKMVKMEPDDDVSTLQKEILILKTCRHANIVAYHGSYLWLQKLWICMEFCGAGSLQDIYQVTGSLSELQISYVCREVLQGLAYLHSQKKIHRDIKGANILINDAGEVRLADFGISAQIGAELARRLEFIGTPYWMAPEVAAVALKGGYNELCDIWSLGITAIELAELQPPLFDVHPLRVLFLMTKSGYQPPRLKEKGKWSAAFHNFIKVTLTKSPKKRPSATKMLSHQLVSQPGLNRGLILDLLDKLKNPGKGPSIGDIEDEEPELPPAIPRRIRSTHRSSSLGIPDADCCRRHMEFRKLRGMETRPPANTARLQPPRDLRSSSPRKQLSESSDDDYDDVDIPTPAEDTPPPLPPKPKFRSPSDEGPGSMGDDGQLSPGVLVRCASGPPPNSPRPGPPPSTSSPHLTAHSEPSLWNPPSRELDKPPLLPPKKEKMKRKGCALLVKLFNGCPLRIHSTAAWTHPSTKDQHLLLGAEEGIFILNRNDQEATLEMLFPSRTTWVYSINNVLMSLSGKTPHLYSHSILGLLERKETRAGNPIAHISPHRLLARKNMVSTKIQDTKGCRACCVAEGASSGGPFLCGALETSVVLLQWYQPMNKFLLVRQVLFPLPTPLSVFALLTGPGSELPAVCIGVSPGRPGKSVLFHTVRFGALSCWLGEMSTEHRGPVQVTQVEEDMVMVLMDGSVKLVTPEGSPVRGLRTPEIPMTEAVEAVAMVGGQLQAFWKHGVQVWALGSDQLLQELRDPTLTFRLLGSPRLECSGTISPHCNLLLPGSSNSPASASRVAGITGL

Row | SMILES | Ki (read-out: HPK1 Ki) [nM] | Ki (HPK1 Ki) [nM]
1 | Cc1c(-c2cc3cc(NC(=O)O[C@H]4C[C@@H](C(=O)N(C)C)C4)ncc3c(N)c2F)cnc2c1NCCO2 [Compound 519a, (1s,3s)-3-(Dimethylcarbamoyl)cyclobutyl (8-amino-7-fluoro-6-(8-methyl-2,3-dihydro-1H-pyrido[2,3-b][1,4]oxazin-7-yl)isoquinolin-3-yl)carbamate] | < 0.013 | 
2 | CNC(=O)[C@H]1C[C@@H](OC(=O)Nc2cc3cc(-c4cnc5c(c4C)NCCO5)c(F)c(N)c3cn2)C1 [Compound 520a, (1s,3s)-3-(Methylcarbamoyl)cyclobutyl (8-amino-7-fluoro-6-(8-methyl-2,3-dihydro-1H-pyrido[2,3-b][1,4]oxazin-7-yl)isoquinolin-3-yl)carbamate hydrochloride] | < 0.013 | 
3 | Cc1c(-c2cc3cc(NC(=O)OC4CN(CCF)C4)ncc3c(N)c2F)cnc2c1NCCO2 [Compound 521, 1-(2-Fluoroethyl)azetidin-3-yl (8-amino-7-fluoro-6-(8-methyl-2,3-dihydro-1H-pyrido[2,3-b][1,4]oxazin-7-yl)isoquinolin-3-yl)carbamate] | 0.11 | 
4 | Cc1c(-c2cc3cc(NC(=O)O[C@H]4[C@@H]5CN(S(C)(=O)=O)C[C@@H]54)ncc3c(N)c2F)cnc2c1NCCO2 [Compound 522a, (1R,5S,6s)-3-(Methylsulfonyl)-3-azabicyclo[3.1.0]hexan-6-yl (8-amino-7-fluoro-6-(8-methyl-2,3-dihydro-1H-pyrido[2,3-b][1,4]oxazin-7-yl)isoquinolin-3-yl)carbamate] | < 0.013 | 
5 | Cc1c(-c2cc3cc(NC(=O)OC4CN(S(=O)(=O)C5CC5)C4)ncc3c(N)c2F)cnc2c1NCCO2 [Compound 524, (1-Cyclopropylsulfonylazetidin-3-yl)-N-[8-amino-7-fluoro-6-(8-methyl-2,3-dihydro-1H-pyrido[2,3-b][1,4]oxazin-7-yl)-3-isoquinolyl]-carbamate hydrochloride] | 0.02 | 
6 | Cc1c(-c2cc3cc(NC(=O)O[C@H]4C[C@@H](N5CC(F)C5)C4)ncc3c(N)c2F)cnc2c1NCCO2 [Compound 525a, (1s,3s)-3-(3-Fluoroazetidin-1-yl)cyclobutyl (8-amino-7-fluoro-6-(8-methyl-2,3-dihydro-1H-pyrido[2,3-b][1,4]oxazin-7-yl)isoquinolin-3-yl)carbamate] | < 0.013 | 
7 | Cc1c(-c2cc3cc(NC(=O)O[C@@H]4C[C@](C)(O)[C@@H]4C)ncc3c(N)c2F)cnc2c1NCCO2 [Compound 526a, (1R,2R,3S)-3-Hydroxy-2,3-dimethylcyclobutyl (8-amino-7-fluoro-6-(8-methyl-2,3-dihydro-1H-pyrido[2,3-b][1,4]oxazin-7-yl)isoquinolin-3-yl)carbamate] | 0.015 | 
8 | Cc1c(-c2cc3cc(NC(=O)O[C@@H]4C[C@@](C)(O)[C@H]4C)ncc3c(N)c2F)cnc2c1NCCO2 [Compound 526d, (1R,2S,3R)-3-Hydroxy-2,3-dimethylcyclobutyl (8-amino-7-fluoro-6-(8-methyl-2,3-dihydro-1H-pyrido[2,3-b][1,4]oxazin-7-yl)isoquinolin-3-yl)carbamate] | 0.018 | 
9 | CNc1cncc(-c2cc3cc(NC(=O)O[C@H]4C[C@](C)(O)C4)ncc3c(N)c2F)c1C [Compound 527a, (1r,3r)-3-Hydroxy-3-methylcyclobutyl (8-amino-7-fluoro-6-(4-methyl-5-(methylamino)pyridin-3-yl)isoquinolin-3-yl)carbamate] | 0.538 | 
10 | CNc1cncc(-c2cc3cc(NC(=O)O[C@H]4C[C@@](C)(O)C4)ncc3c(N)c2F)c1C [Compound 527b, (1s,3s)-3-Hydroxy-3-methylcyclobutyl (8-amino-7-fluoro-6-(4-methyl-5-(methylamino)pyridin-3-yl)isoquinolin-3-yl)carbamate] | 0.216 | 
11 | CO[C@]1(C)C[C@H](OC(=O)Nc2cc3cc(-c4cnc5c(c4C)NCCO5)c(F)c(N)c3cn2)C1 [Compound 528a, (1s,3s)-3-Methoxy-3-methyl cyclobutyl (8-amino-7-fluoro-6-(8-methyl-2,3-dihydro-1H-pyrido[2,3-b][1,4]oxazin-7-yl)isoquinolin-3-yl)carbamate] | < 0.013 | 
12 | CC(=O)O[C@]1(C)C[C@H](OC(=O)Nc2cc3cc(-c4cnc5c(c4C)NCCO5)c(F)c(N)c3cn2)C1 [Compound 529b, (1s,3s)-3-(((8-Amino-7-fluoro-6-(8-methyl-2,3-dihydro-1H-pyrido[2,3-b][1,4]oxazin-7-yl)isoquinolin-3-yl)carbamoyl)oxy)-1-methylcyclobutyl acetate] | 0.019 | 
13 | Cc1c(-c2cc3cc(NC(=O)OC4CC5(C4)CN(CC(F)F)C5)ncc3c(N)c2F)cnc2c1NCCC2 [Compound 532, 2-(2,2-Difluoroethyl)-2-azaspiro[3.3]heptan-6-yl (8-amino-7-fluoro-6-(4-methyl-5,6,7,8-tetrahydro-1,5-naphthyridin-3-yl)isoquinolin-3-yl)carbamate] | 0.014 | 
14 | Cc1c(N)cncc1-c1cc2cc(NC(=O)O[C@H]3C[C@@H](C#N)C3)ncc2c(N)c1F [Compound 534a, (1s,3s)-3-Cyanocyclobutyl (8-amino-6-(5-amino-4-methylpyridin-3-yl)-7-fluoroisoquinolin-3-yl)carbamate] | 0.14 | 
15 | Cc1c(-c2cc3cc(NC(=O)O[C@@H]4CC[C@H]4C#N)ncc3c(N)c2F)cnc2c1NCCO2 [Compound 535b, (1R,2S)-2-Cyanocyclobutyl (8-amino-7-fluoro-6-(8-methyl-2,3-dihydro-1H-pyrido[2,3-b][1,4]oxazin-7-yl)isoquinolin-3-yl)carbamate] | 0.029 | 
16 | Cc1c(-c2cc3cc(NC(=O)O[C@H]4C[C@@H](CC#N)C4)ncc3c(N)c2F)cnc2c1NCCO2 [Compound 536a, (1r,3s)-3-(Cyanomethyl)cyclobutyl (8-amino-7-fluoro-6-(8-methyl-2,3-dihydro-1H-pyrido[2,3-b][1,4]oxazin-7-yl)isoquinolin-3-yl)carbamate] | < 0.013 | 
17 | Cc1c(-c2cc3cc(NC(=O)O[C@H]4C[C@@](C)(C#N)C4)ncc3c(N)c2F)cnc2c1NCCO2 [Compound 537a, (1s,3s)-3-Cyano-3-methylcyclobutyl (8-amino-7-fluoro-6-(8-methyl-2,3-dihydro-1H-pyrido[2,3-b][1,4]oxazin-7-yl)isoquinolin-3-yl)carbamate] | 0.015 | 
18 | Cc1c(-c2cc3cc(NC(=O)O[C@H]4C[C@](C)(C#N)C4)ncc3c(N)c2F)cnc2c1NCCO2 [Compound 537b, (1r,3r)-3-Cyano-3-methylcyclobutyl (8-amino-7-fluoro-6-(8-methyl-2,3-dihydro-1H-pyrido[2,3-b][1,4]oxazin-7-yl)isoquinolin-3-yl)carbamate] | < 0.013 | 
19 | CN[C@H]1C[C@H](OC(=O)Nc2cc3cc(-c4cnc5c(c4C)NCCO5)c(F)c(N)c3cn2)C1 [Compound 539a, (1r,3r)-3-(Methylamino)cyclobutyl (8-amino-7-fluoro-6-(8-methyl-2,3-dihydro-1H-pyrido[2,3-b][1,4]oxazin-7-yl)isoquinolin-3-yl)carbamate] | < 0.013 | 
20 | Cc1c(-c2cc3cc(NC(=O)OC4CN(C5CC5)C4)ncc3c(N)c2F)cnc2c1NCCO2 [Compound 540, 1-Cyclopropylazetidin-3-yl (8-amino-7-fluoro-6-(8-methyl-2,3-dihydro-1H-pyrido[2,3-b][1,4]oxazin-7-yl)isoquinolin-3-yl)carbamate] | 0.021 | 
21 | Cc1c(-c2cc3cc(NC(=O)O[C@H]4C[C@@H](F)C4)ncc3c(N)c2F)cnc2c1NCCO2 [Compound 541a, (1s,3s)-3-Fluorocyclobutyl (8-amino-7-fluoro-6-(8-methyl-2,3-dihydro-1H-pyrido[2,3-b][1,4]oxazin-7-yl)isoquinolin-3-yl)carbamate hydrochloride] | 0.014 | 
22 | Cc1c(-c2cc3cc(NC(=O)O[C@H]4CC[C@H]4O)ncc3c(N)c2F)cnc2c1NCCO2 [Compound 542a, (1S,2R)-2-Hydroxycyclobutyl (8-amino-7-fluoro-6-(8-methyl-2,3-dihydro-1H-pyrido[2,3-b][1,4]oxazin-7-yl)isoquinolin-3-yl)carbamate] |  | 0.33
23 | Cc1c(-c2cc3cc(NC(=O)O[C@@H]4CC[C@@H]4O)ncc3c(N)c2F)cnc2c1NCCO2 [Compound 542b, (1R,2S)-2-Hydroxycyclobutyl (8-amino-7-fluoro-6-(8-methyl-2,3-dihydro-1H-pyrido[2,3-b][1,4]oxazin-7-yl)isoquinolin-3-yl)carbamate] | 0.078 | 
24 | Cc1c(-c2cc3cc(NC(=O)O[C@H]4CC[C@@H]4O)ncc3c(N)c2F)cnc2c1NCCO2 [Compound 542c, (1S,2S)-2-Hydroxycyclobutyl (8-amino-7-fluoro-6-(8-methyl-2,3-dihydro-1H-pyrido[2,3-b][1,4]oxazin-7-yl)isoquinolin-3-yl)carbamate hydrochloride] |  | 0.021
25 | Cc1c(-c2cc3cc(NC(=O)O[C@@H]4CC[C@H]4O)ncc3c(N)c2F)cnc2c1NCCO2 [Compound 542d, (1R,2R)-2-Hydroxycyclobutyl (8-amino-7-fluoro-6-(8-methyl-2,3-dihydro-1H-pyrido[2,3-b][1,4]oxazin-7-yl)isoquinolin-3-yl)carbamate hydrochloride] |  | 0.014
26 | Cc1c(-c2cc3cc(NC(=O)O[C@H]4[C@@H]5COC[C@@H]54)ncc3c(N)c2F)cnc2c1NCCO2 [Compound 543a, (1R,5S,6s)-3-oxabicyclo[3.1.0]hexan-6-yl (8-amino-7-fluoro-6-(8-methyl-2,3-dihydro-1H-pyrido[2,3-b][1,4]oxazin-7-yl)isoquinolin-3-yl)carbamate] | < 0.013 | 
27 | Cc1c(-c2cc3cc(NC(=O)O[C@@H]4[C@@H]5COC[C@@H]54)ncc3c(N)c2F)cnc2c1NCCO2 [Compound 543b, (1R,5S,6r)-3-oxabicyclo[3.1.0]hexan-6-yl (8-amino-7-fluoro-6-(8-methyl-2,3-dihydro-1H-pyrido[2,3-b][1,4]oxazin-7-yl)isoquinolin-3-yl)carbamate] | 0.083 | 
28 | Cc1c(-c2cc3cc(NC(=O)O[C@@H]4CCOC4)ncc3c(N)c2F)cnc2c1[C@@H](O)CC2 [Compound 548a, (R)-tetrahydrofuran-3-yl (8-amino-7-fluoro-6-((S)-5-hydroxy-4-methyl-6,7-dihydro-5H-cyclopenta[b]pyridin-3-yl)isoquinolin-3-yl)carbamate] |  | 1.7
